Here are results for 33 molecules from US9335325B2, “Immunodominant Mycobacterium tuberculosis peptides from cell wall proteins for early diagnosis and immunization” (priority 2008, dated 2016).

What all share (assay type): binding
The subject of assay [1] is antibodies in sera from HIV-TB+ patients and PPD+/PPD- healthy controls. As to the kind of experiment: ELISA of PTRP overlapping peptides with human sera. To be noted: for Immunoreactive: PTRP peptides, biotinylated, streptavidin plates, TB patient sera; for percent of HIV-TB+ patient sera positive with the peptide in 2/3 or 3/3 tests: 60 HIV-TB+ patients, cut-off mean OD of PPD+/PPD- plus 3 SD, retested twice. For orientation: An ELISA detects its analyte on a solid surface through an enzyme-linked reagent.

The test system is the same in assay [2]. The assay is described as follows: ELISA of LipC overlapping peptides with human sera. To be noted: biotinylated, streptavidin plates, patient sera.
Assay [3] has as its system antibodies in sera from TB patients and PPD+/PPD- healthy subjects. The assay is described as follows: ELISA of PE-PGRS51 overlapping peptides with human sera. To be noted: for Immunoreactive: PE-PGRS51 peptides, biotinylated, streptavidin plates, TB patient sera; for non-specific reactivity with sera from HIV+TB- subjects: 20 HIV+TB- subjects, positive/tested; for final sensitivity: percent of patients whose sera recognize the peptide: 90 sputum smear positive TB patients, positive 2/3 or 3/3 times, cut-off mean plus 4 SD.

For assay [4], the system named is anti-LipC antibodies in sera from TB patients. As to the kind of experiment: Western blot of His-tagged LipC probed with human sera. To be noted: for sera showing anti-LipC antibodies: positive/tested. For orientation: Immunoblotting shows a protein as a band on a membrane.

In the case of DRSLAGENHRLVATRLCWPD [PT-6], the Immunoreactive entry in assay [1] is reported as “++ (++ indicates that the peptides were recognized by 40% or more TB patient sera)”.

On to SAAPGTVIDQFVLDVAEHPV [PT-3], for which, in assay [1], the Immunoreactive entry was “++ (++ indicates that the peptides were recognized by 40% or more TB patient sera)”.

For AHAIALFLNQVHRSRAQFAK [Lp-39], the Immunoreactive entry in assay [2] was “++ (++ immunodominant based on being recognized by 45% or more patient sera)”.

For the molecule MAGGNGGNAGLIGNGGTGGS [PG-16], in assay [3], the Immunoreactive result is listed as “++ (++ indicates that the peptides were recognized by 40% or more TB patient sera)”.

For the molecule QQAPVPPPPPDDPTAGFQGG [PT-34], the Immunoreactive result in assay [1] is “++ (++ indicates that the peptides were recognized by 40% or more TB patient sera)”.

For the molecule GGTGGDGGDGGHAGTGGRGG [PG-51], the Immunoreactive result in assay [3] is “++ (++ indicates that the peptides were recognized by 40% or more TB patient sera)”.

Take FPGWQPGMPTIPTAPPTTPV [PT-41]: in assay [1], the “percent of HIV-TB+ patient sera positive with the peptide in 2/3 or 3/3 tests” value (“percent of HIV-TB+ patient sera positive” below) is 55% and the Immunoreactive result is recorded as “++ (++ indicates that the peptides were recognized by 40% or more TB patient sera)”.

Regarding PIPVPIIIPPFPGWQPGMPT [PT-40], in assay [1], the “percent of HIV-TB+ patient sera positive” value amounted to 52% and the Immunoreactive entry is “++ (++ indicates that the peptides were recognized by 40% or more TB patient sera)”.

Take TGAGGSYALTEAANVQQNLL [PG-9]: the Immunoreactive result in assay [3] is on record as “++ (++ indicates that the peptides were recognized by 40% or more TB patient sera)”.

As for SVAGGSLPVVGKHLKPLGGV [Lp-4], the Immunoreactive result in assay [2] is “++ (++ immunodominant based on being recognized by 45% or more patient sera)”.

LTGNDGVNPAPVTNPALNGA [PG-24]: the Immunoreactive result in assay [3] is given as “++ (++ indicates that the peptides were recognized by 40% or more TB patient sera)”.

Take DATTSLPRAEAGQSGSEGEQ [PT-23]: the Immunoreactive result in assay [1] was “++ (++ indicates that the peptides were recognized by 40% or more TB patient sera)”.

In the case of GTPGGAGVNGGNGGAGGDAN [PG-28], the Immunoreactive result in assay [3] was “++ (++ indicates that the peptides were recognized by 40% or more TB patient sera)”.

With NGGAGGDAGHGGTGGDGGDG [PG-50], in assay [3], the “non-specific reactivity with sera from HIV+TB- subjects” value (“non-specific reactivity with sera” below) was 1/20, the “final sensitivity: percent of patients whose sera recognize the peptide” value (“final sensitivity: percent” for short) worked out at 50% and the Immunoreactive entry is “++ (++ indicates that the peptides were recognized by 40% or more TB patient sera)”.

For LLAGQHANSGNGGGGGTGGA [PG-53], the Immunoreactive entry in assay [3] is recorded as “++ (++ indicates that the peptides were recognized by 40% or more TB patient sera)”.

For the molecule ARPADYMLALSVAGGSLPVV [Lp-3], in assay [2], the Immunoreactive entry is given as “++ (++ immunodominant based on being recognized by 45% or more patient sera)”.

As to TAIGVWGARHASDFLSATAK [Lp-6], the Immunoreactive entry in assay [2] is “++ (++ immunodominant based on being recognized by 45% or more patient sera)”.

For MDVALGVAVTDRVARLALVD [PT-1], in assay [1], the Immunoreactive entry is reported as “++ (++ indicates that the peptides were recognized by 40% or more TB patient sera)”.

With GHAGTGGRGGLLAGQHANSG [PG-52], the Immunoreactive entry in assay [3] is on record as “++ (++ indicates that the peptides were recognized by 40% or more TB patient sera)”.

For the molecule PTMVAVAPVAGADATSTVDT [PT-14], the Immunoreactive result in assay [1] is “++ (++ indicates that the peptides were recognized by 40% or more TB patient sera)”.

DGGLLFGNGGAGYNSAATPG [PG-14]: in assay [3], the Immunoreactive result is “++ (++ indicates that the peptides were recognized by 40% or more TB patient sera)”.

Consider LAAAASDVANIGSALSAANA [PG-2], for which, in assay [3], the “non-specific reactivity with sera” value is given as 2/20, the “final sensitivity: percent” value is on record as 48% and the Immunoreactive result is given as “++ (++ indicates that the peptides were recognized by 40% or more TB patient sera)”.

As to LQDSGVHDVAVISEAQAATA [PT-9], in assay [1], the “percent of HIV-TB+ patient sera positive” value is reported as 58% and the Immunoreactive entry is “++ (++ indicates that the peptides were recognized by 40% or more TB patient sera)”.

Regarding NDPQYQAELPEGSDTSVDAV [Lp-26], the Immunoreactive result in assay [2] is listed as “++ (++ immunodominant based on being recognized by 45% or more patient sera)”.

As for AGAGGNGAAGGDGGANGGAG [PG-31], in assay [3], the “non-specific reactivity with sera” value is recorded as “no cross-reactivity”, the “final sensitivity: percent” value was 52% and the Immunoreactive result was “++ (++ indicates that the peptides were recognized by 40% or more TB patient sera)”. Also, the “percent of HIV+TB+ patient sera recognizing the peptide (sensitivity)” value in assay [3] (30 smear positive HIV+TB+ patients) was determined as 57%.

Take IAVAGCSAGGHLSALAGLTA [Lp-24]: the Immunoreactive entry in assay [2] was “++ (++ immunodominant based on being recognized by 45% or more patient sera)”.

For GSRDCVIPVEQARSFVERLR [Lp-34], the Immunoreactive entry in assay [2] is “++ (++ immunodominant based on being recognized by 45% or more patient sera)”.

Regarding LSVVGDPDAPPTMVAVAPVA [PT-13], in assay [1], the “percent of HIV-TB+ patient sera positive” value is given as 53% and the Immunoreactive entry is given as “++ (++ indicates that the peptides were recognized by 40% or more TB patient sera)”.

For the molecule TTPPTTPVTTPPTTPPTTPV [PT-45], the Immunoreactive result in assay [1] was “++ (++ indicates that the peptides were recognized by 40% or more TB patient sera)”.

With QTPDDPTFALARGAAMAAGA [PT-20], the Immunoreactive entry in assay [1] is recorded as “++ (++ indicates that the peptides were recognized by 40% or more TB patient sera)”.

For the molecule GGTHGTPGSGNAGGTGTGNA [PG-55], in assay [3], the “final sensitivity: percent” value amounted to 49% and the Immunoreactive entry was “++ (++ indicates that the peptides were recognized by 40% or more TB patient sera)”.

Turning to GNGGAGGDANGNPANTSIAN [PG-29], in assay [3], the Immunoreactive result is listed as “++ (++ indicates that the peptides were recognized by 40% or more TB patient sera)”.

B1: LipC: purified His-tagged recombinant Mtb LipC protein (SEQ ID NO:6), probable esterase (protein)
chain: MNQRRAAGSTGVAYIRWLLRARPADYMLALSVAGGSLPVVGKHLKPLGGVTAIGVWGARHASDFLSATAKDLLTPGINEVRRRDRASTQEVSVAALRGIVSPDDLAVEWPAPERTPPVCGALRHRRYVHRRRVLYGDDPAQLLDVWRRKDMPTKPAPVLIFVPGGAWVHGSRAIQGYAVLSRLAAQGWVCLSIDYRVAPHHRWPRHILDVKTAIAWARANVDKFGGDRNFIAVAGCSAGGHLSALAGLTANDPQYQAELPEGSDTSVDAVVGIYGRYDWEDRSTPERARFVDFLERVVVQRTIDRHPEVFRDASPIQRVTRNAPPFLVIHGSRDCVIPVEQARSFVERLRAVSRSQVGYLELPGAGHGFDLLDGARTGPTAHAIALFLNQVHRSRAQFAKEVI
modifications: His tag; Mycbacterium tuberculosis Strain H37Rv
Take B1: the “sera showing anti-LipC antibodies” value in assay [4] (HIV+TB+ patients) is recorded as 6/6; in assay [4] (HIV-TB+ patients), 5/6; in assay [4] (TB patients (HIV-TB+ and HIV+TB+)), 11/12. Further, the “reactivity of control sera” value in assay [4] (HIV+TB-, HIV-PPD+, HIV-PPD- control sera) was “background cross-reactivity”.
